In US5236955A, “Anti-fungal agent” (Washington University, priority 1992, dated 1993):

Tests used:
[1] = test system: a variety of fungal species, including C. albicans; conditions: Sabouraud dextrose agar; cited from earlier work
C. neoformans [2] = test: Growth of C. neoformans cultures (absorbance at 600 nm); type: cell-based, Cryptococcus neoformans; conditions: single 300 μM dose, exponential phase, 30° C., SAB, up to 24 h
Method: (§1) Panel A, survey of the effects of several oxatetradecanoic acids on the growth of C. neoformans. A culture of C. neoformans was grown at 30° C. in SAB media to midlog phase (A600 ~0.5). A single dose of fatty acid was then added to subcultures (final concentration=300 μM). EtOH(0.1%) was used as a negative control. Amphotericin B (AmB) was added (final concentraton=55 μM) as a positive control. Aliquots were withdrawn from the subcultures 0, 0.5, 2, 4, 7, 21, and 24 h after these additions and then absorbance at 600 nm was measured. All assays were done in duplicate or triplicate. A representative test is shown. Panel B, survey of the effects of oxatetradecanoic acids, dioxatetradecanoic acids and oxatridecanoic acids on the viability of C. neoformans. Fatty acid analog was added to the cultures as in Panel A. Aliquots were withdrawn 0.5, 2, 4, 7 or 8, and 24 h later and plated on SAB-agar at various dilutions to determine the number of viable organisms/ml culture. All assays were done in duplicate. Data from a representative test are expressed as the ratio of viable cells in treated cultures relative to a control culture that received 0.1% EtOH. A positive control culture received a single dose of amphotericin B (55 μM); Panel C, dose-dependent reduction in the viability of C. neoformans after addition of 4-oxatetradecanoic acid (O4) to cultures during log-phase growth at 30° C. in SAB. A single dose of the analog was given at T=0 h in the amount indicated and aliquots of the culture were withdrawn at various times to determine the number of viable cells. All assays were done in triplicate. A representative test is shown.
Saccharomyces cerevisiae strain YM2061 (MATa ura3-52 his3Δ200 ade2-101 lys2-801 met LEU2::pRY181 can1; Flick and Johnston, Mol. Cell. Biol. 10, 4757-4769 (1990), Candida albicans strain B311 (obtained from the American Type Tissue Culture, Rockville, Md.), or Cryptococcus neoformans strain L210425 (a clinical isolate that is part of the permanent culture collection of the Mycology Laboratory, Barnes Hospital, St. Louis, Mo.) were grown overnight at 30 C. The S. cerevisiae strain was incubated in YPD medium (1% bacto-yeast extract, Gibco, Long Island, N.Y.), 2% bacto-peptone (Gibco), 2% dextrose). The C. albicans and C. neoformans strains were grown in Sabouraud's media (SAB; 2% (w/v) dextrose, 1% bacto-peptone). The following morning the cultures were diluted into fresh medium to the desired density at 600 nm (early log phase), and subsequently incubated in a rotary shaker at 30° C. until an A600 =0.5 (mid log phase) was achieved. The culture was then divided into 10 ml aliquots. A single 10 μl aliquot of a stock solution of fatty acid analog (prepared in various concentrations using absolute ethanol) was added to the culture so that the final concentration of the compound was 100-500 μM (T=0). Ten microliters of ethanol alone was added to one 10 ml culture which served as the negative control. […] Cell viability was determined at each of these time points by (i) serially diluting the aliquot in 0.15M NaCl and counting cell number in a hemocytometer and (ii) plating 2-3 of the dilutions in triplicate onto plates of SAB/agar (C. albicans and C. neoformans) or YPD/agar (S. cerevisiae). […] The data were expressed as the ratio of viable cells/ml in the fatty acid analog treated subculture to the number of viable cells/ml in the negative (ethanol) control culture. […]

C. neoformans [3] = test: Viability of C. neoformans (viable cells relative to EtOH control culture); type: cell-based, Cryptococcus neoformans; conditions: 300 μM single dose; for fungicidal / fungistatic effect on C. neoformans: screening assay; for log reduction at 300 µM: Cryptococcus neoformans, relative to 0.1% EtOH control, read-out: decrease in viable cells (converted)
Method: as §1
Saccharomyces cerevisiae strain YM2061 (MATa ura3-52 his3Δ200 ade2-101 lys2-801 met LEU2::pRY181 can1; Flick and Johnston, Mol. Cell. Biol. 10, 4757-4769 (1990), Candida albicans strain B311 (obtained from the American Type Tissue Culture, Rockville, Md.), or Cryptococcus neoformans strain L210425 (a clinical isolate that is part of the permanent culture collection of the Mycology Laboratory, Barnes Hospital, St. Louis, Mo.) were grown overnight at 30 C. The S. cerevisiae strain was incubated in YPD medium (1% bacto-yeast extract, Gibco, Long Island, N.Y.), 2% bacto-peptone (Gibco), 2% dextrose). The C. albicans and C. neoformans strains were grown in Sabouraud's media (SAB; 2% (w/v) dextrose, 1% bacto-peptone). The following morning the cultures were diluted into fresh medium to the desired density at 600 nm (early log phase), and subsequently incubated in a rotary shaker at 30° C. until an A600 =0.5 (mid log phase) was achieved. The culture was then divided into 10 ml aliquots. A single 10 μl aliquot of a stock solution of fatty acid analog (prepared in various concentrations using absolute ethanol) was added to the culture so that the final concentration of the compound was 100-500 μM (T=0). Ten microliters of ethanol alone was added to one 10 ml culture which served as the negative control. Amphotericin B (AmB; in the form of Fungizone, Squibb) was added (final concentration=55 μM) to another culture which served as the positive control. At T=0 and 0.5-24 h after addition of fatty acid analog to the subcultures, an aliquot was removed for determining the density of the subculture at 600 nm. Cell viability was determined at each of these time points by (i) serially diluting the aliquot in 0.15M NaCl and counting cell number in a hemocytometer and (ii) plating 2-3 of the dilutions in triplicate onto plates of SAB/agar (C. albicans and C. neoformans) or YPD/agar (S. cerevisiae). These plates were subsequently incubated at 30° C. for 24-48 hr to allow for the growth of colonies. The data were expressed as the ratio of viable cells/ml in the fatty acid analog treated subculture to the number of viable cells/ml in the negative (ethanol) control culture.

[4] = test system: S. cerevisiae N-myristoylproteins; test: Metabolic labeling of cellular N-myristoylproteins with tritiated fatty acids; type: cell-based; conditions: tritiated analog, 1 h, 30° C.
Method: (§2) Cells were labeled for 1 h with fatty acids of equal specific activity. Total cellular proteins were reduced, denatured and subjected to SDS-PAGE. Gels were treated overnight with 1 N hydrocylamine (pH 10) at room temperature followed by EN^3 HANCE. Fluorography was performed at -80° C. The exposure time for all gels was identical (2 weeks) as was the total amount of cellular protein added to each lane (100 μg).
(§3) Analysis of the incorporation of exogenous fatty acids into cellular proteins--Cultures of S. cerevisiae YM2061, C. albicans B311, and C. neoformans L210425 were grown overnight at 30° C. in YPD or SAB broth. In the morning, C. albicans and C. neoformans were diluted to an A600 =0.6. All cultures were subsequently shaken at 30° C. until they achieved an A600 =1.2. A 5 ml aliquot of each culture was then incubated at 30° C. with 100 μCi/ml of either [9,10(n)^3 H]myristate (NEN Research Products, Dupont, Boston, Mass.); [6,7(n)^3 H]4-oxatetradecanoate; [9,10(n)^3 H]6-oxatetradecanoate;[9,10(n)^3 H]11-oxatetradecanoate; or [10,11(n)^3 H]13-oxatetradecanoate (the final specific activity of all tritiated fatty acids=30 Ci/mmol, their final concentration=3.3 μM). The cultures were then chilled on ice for 5 min and the cells harvested by centrifugation at 4000×g for 5 min. The pellet was washed by gentle vortexing in 1 ml of phosphate buffered saline (PBS, maintained at 4° C.). The yeast cells were then pelleted by centrifugation (as above) and broken open by vortexing with 500 μm glass beads in a 200 μl solution containing 240 mM Tris-HCl, pH 6.8, 2% SDS, 0.4% β-mercaptoethanol, 0.002% bromophenol blue, and 10% glycerol. The solution was then boiled for 5 min and cellular debris was removed by centrifugation at 12,000×g for 10 min. One hundred μg [Lowry et al., J. Biol. Chem. 193, 265-275 (1951)] of lysate protein from each sample was subjected to denaturation, reduction and electrophoresis through 12% polyacrylamide gels containing 0.1% SDS [Laemmli, Nature 227, 680-685 (1970)]. Duplicate gels were incubated overnight with 1M Tris, pH 7.4, or 1N hydroxylamine, pH 10. Fluorography was performed by treating gels with EN^3 HANCE (NEN Research Products, Dupont) and, following drying, exposing them to Kodak XAR film at -80° C.

[5] = test system: C. neoformans N-myristoylproteins; test: as above; type: cell-based; conditions: tritiated analog, 1 h, 30° C.
Method: as §2, §3

[6] = test system: C. albicans N-myristoylproteins; test: as above; type: cell-based; conditions: tritiated analog, 1 h, 30° C.
Method: as §2, §3

HIV-1 = conditions: cited from earlier work
[7] = test system: human acyl CoA synthetase; conditions: cited from earlier work
[8] = biological target: T1, human myristoylCoA:protein N-myristoyltransferase (NMT) (Homo sapiens, UniProt P30419); conditions: cited from earlier work
T1 sequence (P30419 1-496): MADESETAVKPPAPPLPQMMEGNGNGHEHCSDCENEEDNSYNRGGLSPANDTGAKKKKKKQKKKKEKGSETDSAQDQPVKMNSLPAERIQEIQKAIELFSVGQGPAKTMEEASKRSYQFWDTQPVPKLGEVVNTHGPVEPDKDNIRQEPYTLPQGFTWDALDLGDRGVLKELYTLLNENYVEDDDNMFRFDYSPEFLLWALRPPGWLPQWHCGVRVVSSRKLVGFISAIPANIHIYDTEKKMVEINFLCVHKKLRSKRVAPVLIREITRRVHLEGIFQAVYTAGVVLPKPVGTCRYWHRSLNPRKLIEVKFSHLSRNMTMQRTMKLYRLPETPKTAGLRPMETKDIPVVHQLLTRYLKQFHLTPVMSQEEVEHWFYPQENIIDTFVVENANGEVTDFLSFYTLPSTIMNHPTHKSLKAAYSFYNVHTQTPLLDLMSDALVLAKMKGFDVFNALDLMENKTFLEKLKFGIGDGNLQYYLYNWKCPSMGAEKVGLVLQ

CCCCCCCCOCC(=O)O [3-oxaundecanoic acid, reference compound]
effect on growth of fungal species [1]: broadest spectrum and highest potency

CCCCCCCCCCCOCC(=O)O [O3, 3-oxatetradecanoic acid]
effect on growth of fungal species [1]: inhibited growth
effect on growth of C. neoformans, as determined by optical density (C. neoformans [2]): intermediate degrees of growth retardation
fungicidal / fungistatic effect on C. neoformans (C. neoformans [3]): fungicidal
log reduction at 300 µM (C. neoformans [3]): 1

CCCCCCCCOCCCCC(=O)O [O6, 6-Oxatetradecanoic acid]
effect on growth of C. neoformans, as determined by optical density (C. neoformans [2]): intermediate degrees of growth retardation
time needed to produce the decrease in viable cells (C. neoformans [3]): 4 h
fungicidal / fungistatic effect on C. neoformans (C. neoformans [3]): fungicidal
log reduction at 300 µM (C. neoformans [3]): 1
labeling of S. cerevisiae N-myristoylproteins versus [3H]myristate [4]: failed to label
labeling of C. neoformans N-myristoylproteins versus [3H]myristate [5]: more intense labeling of 20 and 16 kDa C. neoformans N-myristoylproteins than did myristate
labeling of C. albicans N-myristoylproteins versus [3H]myristate [6]: barely labeled

COCCCCCCCCCCCC(=O)O [O13, 13-oxatetradecanoic acid]
HIV-1 replication (HIV-1; acutely and chronically infected human T-lymphocyte cell lines): inhibits HIV-1 replication
cellular toxicity at HIV-1 inhibiting doses (HIV-1; human T-lymphocyte cell lines): do not cause cellular toxicity
fungicidal / fungistatic effect on C. neoformans (C. neoformans [3]): no measurable effect on the growth
substrate for human acyl CoA synthetase [7]: is a substrate
incorporation into the 55 kDa Gpal polypeptide [4]: not
labeling of the 20 kDa Arfs [4]: comparable intensity
substrate for human NMT [8]: is a substrate
